From patent US20240032539A1, “CONCENTRATED FUNGICIDE COMPOSITION OF PROTHIOCONAZOLE AND PICOXYTROBIN” (priority 2020, published 2024)
Read-outs that look alike come from different tables or passages of the source.

Columns and labels:
[1] = cited from earlier work; for Log Know (P Log) / Know P: triazole fungicides, Table 01; for Know or P / Log Know or Log P: strobirulins, Table 2
[2] = cited from earlier work; for Classification (dissociation) / Dissociation Constant - Pka: triazole fungicides, Table 01; for ionization: strobirulins, Table 2
[3] = cited from earlier work; for Solubility in water: triazole fungicides, Table 01; for Solubility-water: strobirulins, Table 2
[4] = Eiq risk indicator of pesticides (Kovach et al.; Eiq Calculator); settings: for Total Eiq (% of picoxystrobin): as percentage of the picoxystrobin value
Procedure: With all this complexity, the question that arises is: is there any risk indicator for the use of pesticides that is accurate, simple to use and easily understandable? So far, the best available option is the Eiq proposed by Kovach et al. (1992).
This indicator is calculated from a total of […] characteristics of pesticides: dermal toxicity, chronic toxicity, systemicity, toxicity to fish, leaching potential, potential for movement on the soil surface, toxicity to birds, time to degrade 50% in soil, toxicity to bees, toxicity to beneficial arthropods and time to degrade 50% on plant surface.
The total Eiq is characteristic of each active ingredient and corresponds to the average of three other more specific coefficients calculated from subgroups of the aforementioned characteristics: Eiq Ecological, Eiq for the worker and Eiq for the consumer.
The Eiq values are dimensionless and can be determined for 1 kg of the active ingredient (to compare the safety of different compounds) or per hectare treated (considers the variable effective dose of use). There are applications that do the calculation automatically such as Eiq Calculator (Cornell—CALS, 2018).

[5] = cited from earlier work; for Consumer Eiq / Ecological Eiq / Total Eiq / Worker Eiq: for 1 kg of the compound; for Total Equi: per kg of compound, Table 2
[6] = strobirulins, Table 2; cited from earlier work
[7] = system: complex of diseases in soybean; experiment: LD50 of strobilurins, populations of different locations and dates of collection; settings: mean over locations and dates of collection
Procedure: Additional tests were conducted with populations with extreme values to verify the correlation of ED50 values with field efficiency and confirm this elevation in values. The same tests were installed in order to compare the most used strobilurins in soybean crops.
All estimated LD50 values were below 1 μg. mL−1, regardless of product, location and date of collection.
That said, it can be stated that the combination of triazole with greater intrinsic activity to strobilurin with the same characteristics makes OFA-T 0143/17 (prothioconazole+picoxystrobin) an excellent tool to assist in the integrated management of diseases in the soybean crop.

## Fc1ccc([C@]2(Cn3cncn3)O[C@H]2c2ccccc2Cl)cc1 (racemic) [epoxiconazole]
[1]
  Log Know (P Log): 3.3
[2]
  Classification (dissociation): No dissociation

## OC(Cc1ccccc1Cl)(Cn1nc[nH]c1=S)C1(Cl)CC1 (racemic) [prothioconazole, (RS)-2-[2-(1-chlorocyclopropyl)-3-(2-chlorophenyl)-2-hydroxypropyl]-2,4-dihydro1,2,4-triazole-3-thione]
[1]
  Know P: 100
  Log Know (P Log): 2
[2]
  Classification (dissociation): Weak acid
  Dissociation Constant - Pka: 6.9
[3]
  Solubility in water: 22.5 mg/L or PPM
[4]; dose of 96 g a.i./ha
  Consumer Eiq: 1.008
  Ecological Eiq: 5.33
  Total Eiq: 2.58
  Worker Eiq: 1.33
[5]
  Consumer Eiq: 10.5
  Ecological Eiq: 55.5
  Total Eiq: 26.9
  Worker Eiq: 13.9

## Clc1ccc(C2(Cn3cncn3)OCCO2)c(Cl)c1 [azaconazole]
[1]
  Know P: 229.1
  Log Know (P Log): 2.36
[2]
  Classification (dissociation): Very weak base
  Dissociation Constant - Pka: 3
[3]
  Solubility in water: 300 mg/L or PPM

## CO/C=C(/C(=O)OC)c1ccccc1Oc1cc(Oc2ccccc2C#N)ncn1 [azoxystrobin]
[1]
  Know or P: 316 dimensionless
  Log Know or Log P: 2.5 dimensionless
[6]
  RL50 in plants: 7.0 days
[2]
  ionization: Non-ionizable
[3]
  Solubility-water: 6.7 mg/L or PPM
[7]
  LD50 mean: 0.23 µg/mL
[4]; Units/Kg
  Total Eiq (% of picoxystrobin): 196.6%
[4]; Units/Mol
  Total Eiq (% of picoxystrobin): 215.7%
[4]; per Mol of compound, Table 2
  Total Eiq: 9.3 Units/Mol
[5]
  Total Equi: 23.0 Units/Kg

## Clc1ccc(C2(Cn3cncn3)CC(Br)CO2)c(Cl)c1 (stereo not drawn) [bromuconazole]
[1]
  Log Know (P Log): 3.24
[2]
  Classification (dissociation): Strong acid
  Dissociation Constant - Pka: 2.75
[3]
  Solubility in water: 48.3 mg/L or PPM

## CC(C1CC1)C(O)(Cn1cncn1)c1ccc(Cl)cc1 (stereo not drawn) [cyproconazole]
[1]
  Log Know (P Log): 3.09
[2]
  Classification (dissociation): No dissociation

## CC1COC(Cn2cncn2)(c2ccc(Oc3ccc(Cl)cc3)cc2Cl)O1 (stereo not drawn) [diphenococonazole]
[1]
  Log Know (P Log): 4.36
[2]
  Classification (dissociation): Strong acid
  Dissociation Constant - Pka: 1.07

## N#CC(CCc1ccc(Cl)cc1)(Cn1cncn1)c1ccccc1 (stereo not drawn) [fenbuconazole]
[1]
  Log Know (P Log): 3.79
[2]
  Classification (dissociation): No dissociation
[3]
  Solubility in water: 2.47 mg/L or PPM

## O=c1c2cc(F)ccc2nc(-n2cncn2)n1-c1ccc(Cl)cc1Cl [fluquinconazole]
[1]
  Log Know (P Log): 3.24
[2]
  Classification (dissociation): Strong acid
  Dissociation Constant - Pka: 0.9

## CCCCC(O)(Cn1cncn1)c1ccc(Cl)cc1Cl (stereo not drawn) [hexaconazole]
[1]
  Log Know (P Log): 3.9
[2]
  Classification (dissociation): Strong acid

## CC1(C)CCC(Cc2ccc(Cl)cc2)C1(O)Cn1cncn1 (stereo not drawn) [metconazole]
[1]
  Log Know (P Log): 3.85
[2]
  Classification (dissociation): Very weak acid

## CCCC(Cn1cncn1)c1ccc(Cl)cc1Cl (stereo not drawn) [penconazole]
[2]
  Classification (dissociation): Very weak base
  Dissociation Constant - Pka: 1.51

## CO/C=C(/C(=O)OC)c1ccccc1COc1cccc(C(F)(F)F)n1 [picoxystrobin, (E)-3-methoxy-2-{2-[6-(trifluoromethyl)-2-pyridyloxymethyl]phenyl}methyl acrylate]
[1]
  Know or P: 3981 dimensionless
  Log Know or Log P: 3.6 dimensionless
[6]
  RL50 in plants: 6.9 days
[2]
  ionization: Non-ionizable
[3]
  Solubility-water: 3.1 mg/L or PPM
[7]
  LD50 mean: 0.18 µg/mL
[4]; Units/Kg
  Total Eiq (% of picoxystrobin): 100.0%
[4]; Units/Mol
  Total Eiq (% of picoxystrobin): 100.0%
[4]; dose of 80g a.i./ha
  Consumer Eiq: 0.408
  Ecological Eiq: 2.00
  Total Eiq: 0.936
  Worker Eiq: 0.408
[4]; per Mol of compound, Table 2
  Total Eiq: 4.3 Units/Mol
[4]; per kg
  average reduction of risks for consumers, workers and the environment versus azoxystrobin: 49.13%
  average reduction of risks for consumers, workers and the environment versus pyraclostrobin: 49.35%
  average reduction of risks for consumers, workers and the environment versus trifloxystrobin: 54.12%
  total Eiq value expressed as a percentage of the value observed for azoxystrobin: 50.87%
  total Eiq value expressed as a percentage of the value observed for pyraclostrobin: 50.65%
  total Eiq value expressed as a percentage of the value observed for trifloxystrobin: 45.88%
[5]
  Consumer Eiq: 5.1
  Ecological Eiq: 25.0
  Total Eiq: 11.7
  Worker Eiq: 5.1
  Total Equi: 11.7 Units/Kg

## CCCC1COC(Cn2cncn2)(c2ccc(Cl)cc2Cl)O1 (stereo not drawn) [propiconazole]
[1]
  Log Know (P Log): 3.72
[2]
  Classification (dissociation): Very weak base
  Dissociation Constant - Pka: 1.09
[3]
  Solubility in water: 150 mg/L or PPM

## COC(=O)N(OC)c1ccccc1COc1ccn(-c2ccc(Cl)cc2)n1 [pyraclostrobin]
[1]
  Know or P: 9772 dimensionless
[6]
  RL50 in plants: 4.7 days
[2]
  ionization: Non-ionizable
[3]
  Solubility-water: 1.5 mg/L or PPM
[7]
  LD50 mean: 0.21 µg/mL
[4]; Units/Kg
  Total Eiq (% of picoxystrobin): 197.4%
[4]; Units/Mol
  Total Eiq (% of picoxystrobin): 208.5%
[4]; per Mol of compound, Table 2
  Total Eiq: 9.0 Units/Mol
[5]
  Total Equi: 23.1 Units/Kg

## CC(C)(C)C(O)(CCc1ccc(Cl)cc1)Cn1cncn1 (stereo not drawn) [tebuconazole]
[1]
  Log Know (P Log): 3.7
[2]
  Classification (dissociation): Weak acid

## FC(F)C(F)(F)OCC(Cn1cncn1)c1ccc(Cl)cc1Cl (stereo not drawn) [tetraconazole]
[1]
  Log Know (P Log): 3.56
[2]
  Classification (dissociation): Strong acid

## CON=C(C(=O)OC)c1ccccc1CON=C(C)c1cccc(C(F)(F)F)c1 [trifloxystrobin]
[1]
  Know or P: 31623 dimensionless
[2]
  ionization: Non-ionizable
[4]
  Total Equi: 10.4 Units/Mol
[4]; 14 days
  more Eiq units required so that 10 g of the compound remained in the plant matrix, versus picoxystrobin: 35.54%

## CC1(C)CCC(=Cc2ccc(Cl)cc2)C1(O)Cn1cncn1 (stereo not drawn) [triticonazole]
[1]
  Log Know (P Log): 3.29
[2]
  Classification (dissociation): No dissociation

## CC(C)(C)C(O)/C(=C\c1ccc(Cl)cc1)n1cncn1 (stereo not drawn) [uniconazole]
[1]
  Log Know (P Log): 3.84
[2]
  Classification (dissociation): Very weak acid
  Dissociation Constant - Pka: 13.07
[3]
  Solubility in water: 8.41 mg/L or PPM
